Series [1] concerns the target T1, type α4β2 central nicotinic receptors (Rattus norvegicus, UniProt P09483+P12390).
T1 construct: from tissue; host or cells: rat brain membranes
As to the kind of experiment: Displacement of binding of [3H]-cytisine to type α4β2 nicotinic receptors of rat brain. Conditions: rat brain membranes, read-out: Affinity (Ki, nM) for type α4β2 receptors. The protocol:
This study, carried out according to the technique described in Molec. Pharmacol., 1990, 39; 9-12, is aimed at determining the affinity of compounds of the present invention for type […] central nicotinic receptors.
Membranes (250 μg/ml) of rat brain are incubated (2 hours, 20° C.) in the presence of a series of concentrations (0.01-10 μM) of each compound of the present invention (diluted starting from a 10 mM stock solution in DMSO) and [^3H]-cytisine (S.A.: 1184 GBq/mmol: 2 nM) in phosphate buffer (NaH2PO4 20 mM, pH 7.4); final volume: 250 μl. The non-specific binding is determined by incubating membranes in the presence of 10 μM of (−)nicotine. The affinity of the compounds of the present invention for type α4β2 central nicotinic receptors is characterised by determination of the Ki.

The subject of series [2] is cortical release of acetylcholine. As to the kind of experiment: In vivo measurement of the release of acetylcholine by intra-cortical microdialysis in the conscious Wistar rat. The note with it: 10 mg/kg IP, median prefrontal cortex. Here is the method:
The systemic administration of nicotine and nicotinic agonists causes an increase, in vivo, of acetylcholine in various regions of the brain (Neurochem. Res., 1996, 21, 1181-1186; Eur. J. Pharmacol., 1998, 351, 181-188; Br. J. Pharmacol., 1999, 127, 1486-1494). A microdialysis probe is implanted in the median prefrontal cortex of male Wistar rats. Six or seven days after they have been implanted, the probes are perfused with Ringer's solution (NaCl 147 mM, KCl 2.7 mM, CaCl2 1.2 mM, MgCl2 1 mM, neostigmine 20 nM) at a flow rate of 1 μl/min, the animal being free to move. After 2 hours in the animal quarters, the product under test is administered by the intraperitoneal route. A group of control animals receives the solvent used for the product. The dialysates (30 μl) are then collected every 30 minutes for 4 hours in order to measure the extra-synaptic cortical concentrations of acetylcholine by means of HPLC with amperometric detection. The results are expressed in pg of acetylcholine/dialysate, and inter-group comparisons are carried out by means of variance analysis, using 2 factors (treatment×time), with measurements being repeated over time.

In series [3] the test system is NMRI mouse. As to the kind of experiment: Abdominal contractions induced by phenyl-p-benzoquinone (PBQ) in the NMRI mouse. It counts as in vivo. Conditions: 10 mg/kg IP. The protocol:
Intraperitoneal administration of an alcoholic solution of PBQ causes abdominal cramps in the mouse (Proc. Soc. Exp. Biol., 1957, 95, 729-731). The cramps are characterised by repeated contractions of the abdominal musculature, accompanied by extension of the hind limbs. Most analgesics antagonise these abdominal cramps (Brit. J. Pharmacol. Chem., 1968, 32, 295-310). At t=0 min., the animals are weighed and the compound being studied is administered by the IP route. A group of control animals is given the solvent used for the compound. At t=30 min., an alcoholic solution of PBQ (0.2%) is administered by the IP route in a volume of 0.25 ml/mouse. Immediately after administration of the PBQ, the animals are placed in cylinders of plexiglass (L=19.5 cm; I.D.=5 cm). From t=35 min. to t=45 min., the animals' reaction is observed and the experimenter notes the total number of abdominal cramps per animal. The results are expressed as the percentage inhibition of the number of abdominal cramps measured in the control animals at the active dose of the compound studied.

The term Ki denotes the dissociation constant of the complex between target and ligand, obtained from inhibition or displacement. The term melting point denotes the temperature of the solid-liquid transition.

T1 sequence (P09483 31-630): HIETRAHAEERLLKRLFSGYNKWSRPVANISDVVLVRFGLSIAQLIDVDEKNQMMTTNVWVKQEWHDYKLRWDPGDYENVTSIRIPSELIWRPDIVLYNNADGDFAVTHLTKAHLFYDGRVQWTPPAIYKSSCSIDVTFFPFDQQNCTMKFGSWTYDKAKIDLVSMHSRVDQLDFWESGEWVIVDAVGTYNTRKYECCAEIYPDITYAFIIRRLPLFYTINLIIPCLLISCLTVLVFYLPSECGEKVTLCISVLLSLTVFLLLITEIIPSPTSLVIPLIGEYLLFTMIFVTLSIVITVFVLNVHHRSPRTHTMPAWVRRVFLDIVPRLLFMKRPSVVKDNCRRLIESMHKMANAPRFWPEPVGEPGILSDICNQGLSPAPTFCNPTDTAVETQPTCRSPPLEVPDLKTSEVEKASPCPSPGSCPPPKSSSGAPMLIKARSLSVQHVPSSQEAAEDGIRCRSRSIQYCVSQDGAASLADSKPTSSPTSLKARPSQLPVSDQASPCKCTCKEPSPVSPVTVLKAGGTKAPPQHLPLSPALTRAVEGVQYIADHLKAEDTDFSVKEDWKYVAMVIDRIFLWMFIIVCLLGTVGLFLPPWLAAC
T1 sequence (P12390 25-500): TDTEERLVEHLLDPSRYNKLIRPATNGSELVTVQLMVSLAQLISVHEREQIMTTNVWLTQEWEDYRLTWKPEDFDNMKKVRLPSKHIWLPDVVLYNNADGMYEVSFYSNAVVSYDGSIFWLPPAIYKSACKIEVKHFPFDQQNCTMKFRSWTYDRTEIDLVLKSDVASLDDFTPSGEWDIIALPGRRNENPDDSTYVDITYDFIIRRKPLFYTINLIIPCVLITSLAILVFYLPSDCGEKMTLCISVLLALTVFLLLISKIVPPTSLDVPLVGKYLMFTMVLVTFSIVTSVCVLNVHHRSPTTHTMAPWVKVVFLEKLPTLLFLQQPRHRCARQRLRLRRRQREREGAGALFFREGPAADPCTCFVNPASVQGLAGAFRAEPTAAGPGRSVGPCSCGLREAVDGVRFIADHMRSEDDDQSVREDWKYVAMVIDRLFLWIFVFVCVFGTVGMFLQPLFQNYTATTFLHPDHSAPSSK

In turn, `CNC1(COc2cncc(-c3ccc(C)cc3)c2)CC1.Cl.Cl` [Example 2, Methyl[1-({[5-(4-methylphenyl)pyridin-3-yl]oxy}methyl)cyclopropyl]amine dihydrochloride] showed a melting point of 218 to 223 °C. Besides, the Ki in series [1] is 8.5 nM.

In turn, `CNC1(COc2cnc(Cl)c(-c3ccc(C#N)cc3)c2)CC1.Cl` [Example 18, 4-(2-Chloro-5-{[1-(methylamino)cyclopropyl]methoxy}pyridin-3-yl)benzonitrile hydrochloride] returned a melting point of 215 to 220 °C. Further, the “increase of the release of acetylcholine” value in series [2] is “+104%”.

As for `CNC1(COc2cnc(C)c(-c3ccncc3)c2)CC1.Cl.Cl.Cl` [Example 81, Methyl(1-{[(2-methyl-3,4′-bipyridin-5-yl)oxy]methyl}cyclopropyl)amine trihydrochloride], the melting point lay within 130 to 138 °C. For the same molecule, the “inhibition of the number of abdominal cramps versus control animals” value in series [3] is recorded as −90%.

With `CNC1(CNc2cnc(Cl)c(-c3ccncc3)c2)CC1.Cl.Cl` [Example 106, 2-Chloro-N-{[1-(methylamino)cyclopropyl]methyl}-3,4′-bipyridin-5-amine dihydrochloride], the melting point was 100 to 110 °C. Besides, in series [3], the “inhibition of the number of abdominal cramps versus control animals” value is −87%.

For “[1-({[5-(3-Methoxyphenyl)pyridin-3-yl]oxy}methyl)cyclopropyl]methylamine dihydrochloride [Example 1]”, in series [1], the Ki amounted to 7.9 nM. Besides, the “increase of the release of acetylcholine” value in series [2] is “+72%”.
